Test results taken from paper PMC5325082 (Molecular Pharmacology, 2017).

Columns and labels:
Format in all cases: cell-based
[1] = target: rat α9α10 nAChR (wild type) (Rattus norvegicus, UniProt P43144+Q9JLB5); assay: ACh-evoked currents, two-electrode voltage clamp in Xenopus laevis oocytes, wild-type receptor; conditions: −70 mV
Description: (§1) cDNAs encoding Gallus gallus (chick) or Rattus norvegicus (rat) α9 and α10 nAChR subunits were subcloned into a modified pGEMHE vector for expression studies in Xenopus laevis oocytes. Capped cRNAs were in vitro transcribed from linearized plasmid DNA templates using RiboMAX Large Scale RNA Production System (Promega, Madison, WI). Mutant subunits were produced using Quick Change XL II kit (Stratagene, La Jolla, CA). Amino acid sequences of rat and chicken α9, α10, and Torpedo α1 subunits were aligned using ClustalW (EMBL-EBI, Wellcome Genome Campus, Hinxton, Cambridgeshire). Residues were numbered according to the corresponding Torpedo α1 subunit mature protein ([Karlin, 2002]).
The maintenance of Xenopus laevis and the preparation and cRNA injection of stage V and VI oocytes have been described in detail elsewhere ([Verbitsky et al., 2000]). Typically, oocytes were injected with 50 nl of RNase-free water containing 0.01–1.0 ng of cRNA (at a 1:1 molar ratio when pairwise combined) and maintained in Barth’s solution at 18°C. […] Data were analyzed using Clampfit from the pClamp 6.1 software (Molecular Devices, Sunnyvale, CA). […]
Concentration-response curves were normalized to the maximal agonist response in each oocyte. […] Data were analyzed using Clampfit from the pClamp 6.1 software.

rat α9CC/SSα10 receptor = rat α9CC/SSα10 receptor (Rattus norvegicus, UniProt P43144+Q9JLB5, C219S/C220S); assay: ACh-evoked currents, two-electrode voltage clamp in Xenopus laevis oocytes
Description: as §1
(§2) The maintenance of Xenopus laevis and the preparation and cRNA injection of stage V and VI oocytes have been described in detail elsewhere ([Verbitsky et al., 2000]). Typically, oocytes were injected with 50 nl of RNase-free water containing 0.01–1.0 ng of cRNA (at a 1:1 molar ratio when pairwise combined) and maintained in Barth’s solution at 18°C. Electrophysiological recordings were performed 2–6 days after cRNA injection under two-electrode voltage clamp with an Oocyte Clamp OC-725B or C amplifier (Warner Instruments Corp., Hamden, CT). Recordings were filtered at a corner frequency of 10 Hz using a 900BT Tunable Active Filter (Frequency Devices Inc., Ottawa, IL). Data acquisition was performed using a Patch Panel PP-50 LAB/1 interface (Warner Instruments Corp.) at a rate of 10 points per second. Both voltage and current electrodes were filled with 3 M KCl and had resistances of ∼1 MΩ. Data were analyzed using Clampfit from the pClamp 6.1 software (Molecular Devices, Sunnyvale, CA). During electrophysiological recordings, oocytes were continuously superfused (∼15 ml/min) with normal frog saline composed of: 115 mM NaCl, 2.5 mM KCl, 1.8 mM CaCl2, and 10 mM HEPES buffer, pH 7.2. […] Unless otherwise indicated, the membrane potential was clamped to −70 mV. To minimize activation of the endogenous Ca^2+ sensitive chloride current ([Elgoyhen et al., 2001]), all experiments were performed in oocytes incubated with the Ca^2+ chelator 1,2-bis(2-aminophenoxy)ethane-N,N,N′,N′-tetraacetic acid (acetoxymethyl ester) (100 µM) for 3 hours before electrophysiological recordings.
(§3) Concentration-response curves were normalized to the maximal agonist response in each oocyte. The mean and S.E.M. values of the responses are represented. Agonist concentration-response curves were iteratively fitted, using Prism 5 software (GraphPad Software Inc., La Jolla, CA), with the equation: I/Imax = A^nH/(A^nH + EC50^nH), where I is the peak inward current evoked by the agonist at concentration A; Imax is the current evoked by the concentration of the agonist eliciting a maximal response; EC50 is the concentration of the agonist inducing a half-maximal current response; and nH is the Hill coefficient. Data were analyzed using Clampfit from the pClamp 6.1 software.

rat α9Y190Tα10 receptor = rat α9Y190Tα10 receptor (Rattus norvegicus, UniProt P43144+Q9JLB5, Y217T); assay: as above
Description: as §1, §2, §3

rat α9W55Tα10 receptor = rat α9W55Tα10 receptor (Rattus norvegicus, UniProt P43144+Q9JLB5, W82T); assay: as above
Description: as §1, §2, §3

rat α9α10Y190T receptor = rat α9α10Y190T receptor (Rattus norvegicus, UniProt P43144+Q9JLB5, Y216T); assay: as above
Description: as §1, §2, §3

rat α9α10CC/SS receptor = rat α9α10CC/SS receptor (Rattus norvegicus, UniProt P43144+Q9JLB5, C218S/C219S); assay: as above
Description: as §1, §2, §3

[2] = target: rat α9CC/SSα10CC/SS receptor (Rattus norvegicus, UniProt P43144+Q9JLB5, C218S/C219S/C220S); assay: as above
Description: as §1, §2, §3

rat α9α10W55T receptor = target: T1, rat α9α10W55T receptor (Rattus norvegicus, UniProt P43144+Q9JLB5, W81T); assay: as above
T1 construct: expressed in transfected cells; host or cells: Xenopus laevis oocytes (cRNA injection)
Description: as §1, §2
(§4) Concentration-response curves were normalized to the maximal agonist response in each oocyte. The mean and S.E.M. values of the responses are represented. […] Data were analyzed using Clampfit from the pClamp 6.1 software. […]

rat α9α10R117M receptor = rat α9α10R117M receptor (Rattus norvegicus, UniProt P43144+Q9JLB5, R143M); assay: as above
Description: as §1, §2, §4

[3] = target: rat α9α10 W55T/R117M receptor (Rattus norvegicus, UniProt P43144+Q9JLB5, R143M/W81T); assay: as above
Description: as §1, §2, §4

[4] = target: chicken α9α10W55T receptor (Gallus gallus, UniProt Q9I8C7+Q9PTS8, W83T); assay: as above
Description: as §1
The maintenance of Xenopus laevis and the preparation and cRNA injection of stage V and VI oocytes have been described in detail elsewhere ([Verbitsky et al., 2000]). Typically, oocytes were injected with 50 nl of RNase-free water containing 0.01–1.0 ng of cRNA (at a 1:1 molar ratio when pairwise combined) and maintained in Barth’s solution at 18°C. Electrophysiological recordings were performed 2–6 days after cRNA injection under two-electrode voltage clamp with an Oocyte Clamp OC-725B or C amplifier (Warner Instruments Corp., Hamden, CT). Recordings were filtered at a corner frequency of 10 Hz using a 900BT Tunable Active Filter (Frequency Devices Inc., Ottawa, IL). Data acquisition was performed using a Patch Panel PP-50 LAB/1 interface (Warner Instruments Corp.) at a rate of 10 points per second. Both voltage and current electrodes were filled with 3 M KCl and had resistances of ∼1 MΩ. Data were analyzed using Clampfit from the pClamp 6.1 software (Molecular Devices, Sunnyvale, CA). During electrophysiological recordings, oocytes were continuously superfused (∼15 ml/min) with normal frog saline composed of: 115 mM NaCl, 2.5 mM KCl, 1.8 mM CaCl2, and 10 mM HEPES buffer, pH 7.2. ACh was added to the perfusion solution for application. Unless otherwise indicated, the membrane potential was clamped to −70 mV. To minimize activation of the endogenous Ca^2+ sensitive chloride current ([Elgoyhen et al., 2001]), all experiments were performed in oocytes incubated with the Ca^2+ chelator 1,2-bis(2-aminophenoxy)ethane-N,N,N′,N′-tetraacetic acid (acetoxymethyl ester) (100 µM) for 3 hours before electrophysiological recordings.
as §3

SMILES: CC(=O)OCC[N+](C)(C)C [ACh, acetylcholine]
- Imax (maximal evoked current) [1]: 298 ± 48 nA
- Imax (maximal evoked current) (rat α9CC/SSα10 receptor): 402 ± 103 nA
- Imax (maximal evoked current) (rat α9Y190Tα10 receptor): 112 ± 6 nA
- Imax (maximal evoked current) (rat α9W55Tα10 receptor): 42 ± 4 nA
- Imax (maximal evoked current) (rat α9α10Y190T receptor): 336 ± 91 nA
- Imax (maximal evoked current) (rat α9α10CC/SS receptor): 571 ± 113 nA
- Imax (maximal evoked current) [2]: 360 ± 119 nA
- Imax (maximal evoked current) (rat α9α10W55T receptor): 177 ± 81 nA
- Imax (maximal evoked current) (rat α9α10R117M receptor): 107 ± 38 nA
- Imax (maximal evoked current) ([3]; rat α9α10 W55T/R117M, oocytes): 245 ± 83 nA
- Free energy coupling, double-mutant cycle ([3]; α10W55 and α10R117): -1.47 kcal/mol
- EC50 [4]: 334 ± 13 µM
- Imax (maximal evoked current) [4]: 159 ± 32 nA
